Experimental data as given in ChEMBL document CHEMBL1146671, “Non-peptide alpha v beta 3 antagonists. Part 7: 3-Substituted tetrahydro-naphthyridine derivatives” (Bioorg Med Chem Lett, 2004).
pIC50: −log10 of the molar value.

Legend:
Integrin alpha-V/beta-3 = Integrin alpha-V/beta-3 (Homo sapiens, UniProt P05106+P06756); assay: Displacement of [125I]L-775,219 from human recombinant alphaV-beta3 integrin; format: protein-complex assay
[1] = Hammett constant was determined; format: functional
[2] = Bioavailability in dog; format: ADME, organism-based, Canis lupus familiaris; conditions: in vivo
[3] = Half-life of compound was determined in dogs; format: ADME, organism-based, Canis lupus familiaris; conditions: dog, in vivo
[4] = Clearance of compound was determined in dogs; format: ADME, organism-based, Canis lupus familiaris; conditions: dog, in vivo

Integrin alpha-V/beta-3, sequence (P05106 27-788 limits assumed): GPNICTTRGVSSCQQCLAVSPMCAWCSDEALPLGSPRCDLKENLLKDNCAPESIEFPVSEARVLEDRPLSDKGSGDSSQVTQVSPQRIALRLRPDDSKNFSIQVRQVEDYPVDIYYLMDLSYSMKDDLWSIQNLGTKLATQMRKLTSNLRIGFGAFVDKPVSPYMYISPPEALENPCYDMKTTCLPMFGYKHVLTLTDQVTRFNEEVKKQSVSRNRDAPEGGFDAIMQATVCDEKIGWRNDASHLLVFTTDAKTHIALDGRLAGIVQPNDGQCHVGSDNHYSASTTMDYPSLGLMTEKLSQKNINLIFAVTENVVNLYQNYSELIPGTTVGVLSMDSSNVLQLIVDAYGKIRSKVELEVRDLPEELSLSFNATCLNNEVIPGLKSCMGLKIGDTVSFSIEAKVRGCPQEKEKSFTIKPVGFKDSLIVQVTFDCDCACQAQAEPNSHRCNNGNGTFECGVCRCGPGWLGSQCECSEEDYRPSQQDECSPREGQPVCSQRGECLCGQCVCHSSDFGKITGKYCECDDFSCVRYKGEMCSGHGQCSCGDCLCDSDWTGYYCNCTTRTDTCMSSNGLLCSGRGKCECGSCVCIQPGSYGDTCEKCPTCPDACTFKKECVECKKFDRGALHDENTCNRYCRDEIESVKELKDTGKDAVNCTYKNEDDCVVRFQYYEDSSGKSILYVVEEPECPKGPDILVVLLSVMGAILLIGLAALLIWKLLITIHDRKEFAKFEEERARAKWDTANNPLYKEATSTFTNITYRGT
Integrin alpha-V/beta-3, sequence (P06756 31-889 limits assumed): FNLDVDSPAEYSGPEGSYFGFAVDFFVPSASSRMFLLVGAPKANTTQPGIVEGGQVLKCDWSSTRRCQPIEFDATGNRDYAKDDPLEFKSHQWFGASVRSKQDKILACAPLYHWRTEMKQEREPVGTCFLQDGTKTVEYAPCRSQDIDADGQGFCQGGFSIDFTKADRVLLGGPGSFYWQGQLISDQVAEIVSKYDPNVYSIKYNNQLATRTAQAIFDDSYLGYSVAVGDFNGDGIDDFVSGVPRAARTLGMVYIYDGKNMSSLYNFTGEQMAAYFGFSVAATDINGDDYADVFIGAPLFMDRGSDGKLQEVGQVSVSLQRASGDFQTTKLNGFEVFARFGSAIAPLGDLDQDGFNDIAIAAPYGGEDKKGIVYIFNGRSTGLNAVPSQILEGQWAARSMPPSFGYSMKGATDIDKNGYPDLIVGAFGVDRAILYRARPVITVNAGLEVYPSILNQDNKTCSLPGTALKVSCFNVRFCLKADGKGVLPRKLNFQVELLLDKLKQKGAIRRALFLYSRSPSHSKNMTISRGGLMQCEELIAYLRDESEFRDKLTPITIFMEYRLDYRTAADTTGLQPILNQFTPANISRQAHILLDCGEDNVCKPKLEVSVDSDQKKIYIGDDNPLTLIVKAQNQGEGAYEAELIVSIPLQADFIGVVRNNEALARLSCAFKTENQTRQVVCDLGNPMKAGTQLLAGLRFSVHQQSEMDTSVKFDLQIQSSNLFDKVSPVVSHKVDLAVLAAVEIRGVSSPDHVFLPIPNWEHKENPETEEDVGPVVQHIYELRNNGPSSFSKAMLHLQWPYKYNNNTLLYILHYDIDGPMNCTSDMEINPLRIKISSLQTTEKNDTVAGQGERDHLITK
Integrin alpha-V/beta-3, sequence (P06756 891-1048 limits assumed): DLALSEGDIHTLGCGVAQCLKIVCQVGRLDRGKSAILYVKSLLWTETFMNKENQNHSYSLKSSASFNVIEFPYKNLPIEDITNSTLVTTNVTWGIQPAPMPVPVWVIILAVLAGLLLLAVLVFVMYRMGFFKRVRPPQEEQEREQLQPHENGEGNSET

`COc1ccc([C@H](CC(=O)O)N(C)C(=O)CCCCc2nc3c(cc2[N+](=O)[O-])CCCN3)cn1` gave a pIC50 (Integrin alpha-V/beta-3) of 7.44 and a Sigmap [1] of 0.81.

For `COc1ccc([C@H](CC(=O)O)N(C)C(=O)CCCCc2nc3c(cc2N)CCCN3)cn1`, the pIC50 (Integrin alpha-V/beta-3) was 9.40 and the Sigmap [1] was -0.3.

In the case of `COc1ccc([C@H](CC(=O)O)N(C)C(=O)CCCCc2nc3c(cc2Br)CCCN3)cn1`, the pIC50 (Integrin alpha-V/beta-3) was 8.64 and the Sigmap [1] was 0.26.

Work on `C=Cc1cc2c(nc1CCCCC(=O)N(C)[C@@H](CC(=O)O)c1ccc(OC)nc1)NCCC2` yielded a pIC50 (Integrin alpha-V/beta-3) of 9.52 and a Sigmap [1] of -0.14.

`COc1ccc([C@H](CC(=O)O)N(C)C(=O)CCCCc2nc3c(cc2-c2ccccc2)CCCN3)cn1` gave a pIC50 (Integrin alpha-V/beta-3) of 9.05 and a Sigmap [1] of 0.05.

`COc1ccc([C@H](CC(=O)O)N(C)C(=O)CCCCc2nc3c(cc2NS(C)(=O)=O)CCCN3)cn1` showed a pIC50 (Integrin alpha-V/beta-3) of 9.05 and a Sigmap [1] of 0.03.

With `COc1ccc([C@H](CC(=O)O)N(C)C(=O)CCCCc2ccc3c(n2)NCCC3)cn1` the bioavailability [2] was 76%, the half-life [3] was 5.8 h and the pIC50 (Integrin alpha-V/beta-3) was 9.15. It also gave a Sigmap [1] of 0.

`COc1ccc([C@H](CC(=O)O)N(C)C(=O)CCCCc2nc3c(cc2NC(C)=O)CCCN3)cn1` showed a pIC50 (Integrin alpha-V/beta-3) of 9.22 and a Sigmap [1] of 0.

`COc1ccc([C@H](CC(=O)O)N(C)C(=O)CCCCc2nc3c(cc2C#N)CCCN3)cn1` showed a pIC50 (Integrin alpha-V/beta-3) of 7.78 and a Sigmap [1] of 0.71.

`COc1ccc([C@H](CC(=O)O)N(C)C(=O)CCCCc2nc3c(cc2C)CCCN3)cn1` showed a bioavailability [2] of 65%, a half-life [3] of 4.9 h and a clearance [4] of 2.4 mL/min/kg. It also gave a pIC50 (Integrin alpha-V/beta-3) of 9.52 and a Sigmap [1] of -0.14.
